The source of these data is ChEMBL document CHEMBL3351724, “Human α1-adrenoceptor subtype selectivity of substituted homobivalent 4-aminoquinolines” (Bioorg Med Chem, 2014).

The target in assay [1] is T1, 5-hydroxytryptamine receptor 1A (Homo sapiens, UniProt P08908).
T1 sequence (P08908 whole entry): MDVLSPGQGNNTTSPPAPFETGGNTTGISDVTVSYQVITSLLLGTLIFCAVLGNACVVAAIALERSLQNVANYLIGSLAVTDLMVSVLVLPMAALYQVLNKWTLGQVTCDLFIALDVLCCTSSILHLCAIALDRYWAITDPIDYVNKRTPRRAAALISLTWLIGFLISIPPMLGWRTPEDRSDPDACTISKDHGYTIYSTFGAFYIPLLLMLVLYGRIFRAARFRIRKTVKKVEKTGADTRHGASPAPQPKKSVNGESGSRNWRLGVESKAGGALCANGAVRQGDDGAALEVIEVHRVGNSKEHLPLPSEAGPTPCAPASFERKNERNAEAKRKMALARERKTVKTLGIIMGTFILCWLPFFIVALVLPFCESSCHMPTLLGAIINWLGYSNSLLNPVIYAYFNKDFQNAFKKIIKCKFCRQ
In words: Displacement of [3H]8-OH-DPAT from human 5HT1A receptor transfected in COS1 cells. It counts as cell-based, COS-1. For orientation: In a radioligand displacement assay an active substance lowers the binding of a labelled ligand.

For assay [2], the target named is T1, 5-hydroxytryptamine receptor 1A. In words: Binding affinity to human 5HT1A receptor transfected in COS1 cells assessed as compound required to occupy 50% of receptor. Type of assay: cell-based, COS-1.
The target of assay [3] is T2, Alpha-1B adrenergic receptor (Homo sapiens, UniProt P35368).
T2 sequence (P35368 whole entry): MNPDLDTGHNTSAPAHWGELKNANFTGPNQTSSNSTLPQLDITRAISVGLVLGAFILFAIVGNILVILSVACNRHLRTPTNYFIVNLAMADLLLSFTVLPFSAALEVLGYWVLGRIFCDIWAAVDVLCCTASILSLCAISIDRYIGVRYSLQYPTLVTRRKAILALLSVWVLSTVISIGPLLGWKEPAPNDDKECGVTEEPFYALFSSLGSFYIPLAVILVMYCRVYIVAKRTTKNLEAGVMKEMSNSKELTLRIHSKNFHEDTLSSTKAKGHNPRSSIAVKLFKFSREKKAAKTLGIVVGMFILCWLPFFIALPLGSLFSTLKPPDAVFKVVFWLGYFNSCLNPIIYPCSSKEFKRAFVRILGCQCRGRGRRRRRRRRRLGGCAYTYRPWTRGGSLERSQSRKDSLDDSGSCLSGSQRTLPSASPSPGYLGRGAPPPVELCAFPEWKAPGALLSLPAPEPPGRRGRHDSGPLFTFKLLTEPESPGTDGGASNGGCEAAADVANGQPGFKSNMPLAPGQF
In words: Binding affinity to human alpha1B adrenergic receptor transfected in COS1 cells assessed as compound required to occupy 50% of receptor. It counts as cell-based, COS-1.

The target in assay [4] is T3, Alpha-1A adrenergic receptor (Homo sapiens, UniProt P35348).
T3 sequence (P35348 whole entry): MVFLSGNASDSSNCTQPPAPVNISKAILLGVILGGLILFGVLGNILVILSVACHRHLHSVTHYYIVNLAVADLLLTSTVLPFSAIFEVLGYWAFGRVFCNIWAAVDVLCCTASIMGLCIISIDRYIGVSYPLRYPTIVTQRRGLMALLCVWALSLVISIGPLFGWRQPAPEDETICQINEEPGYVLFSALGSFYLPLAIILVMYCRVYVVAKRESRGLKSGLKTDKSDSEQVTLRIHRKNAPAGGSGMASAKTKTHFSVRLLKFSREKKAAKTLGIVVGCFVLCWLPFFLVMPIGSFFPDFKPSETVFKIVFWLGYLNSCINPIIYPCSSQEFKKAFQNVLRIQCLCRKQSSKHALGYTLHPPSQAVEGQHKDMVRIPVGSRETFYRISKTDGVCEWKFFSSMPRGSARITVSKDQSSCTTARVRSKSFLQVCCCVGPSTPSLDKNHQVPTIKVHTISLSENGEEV
In words: Binding affinity to human alpha1A adrenergic receptor transfected in COS1 cells assessed as compound required to occupy 50% of receptor. It counts as cell-based, COS-1.

Assay [5] concerns the target T2, Alpha-1B adrenergic receptor. In words: Displacement of [3H]-prazosin from human alpha1B adrenergic receptor transfected in COS1 cells. It counts as cell-based, COS-1.
For assay [6], the target named is T3, Alpha-1A adrenergic receptor. In words: Displacement of [3H]-prazosin from human alpha1A adrenergic receptor transfected in COS1 cells. It counts as cell-based, COS-1.
The target of assay [7] is T4, Alpha-1D adrenergic receptor (Homo sapiens, UniProt P25100).
T4 sequence (P25100 whole entry): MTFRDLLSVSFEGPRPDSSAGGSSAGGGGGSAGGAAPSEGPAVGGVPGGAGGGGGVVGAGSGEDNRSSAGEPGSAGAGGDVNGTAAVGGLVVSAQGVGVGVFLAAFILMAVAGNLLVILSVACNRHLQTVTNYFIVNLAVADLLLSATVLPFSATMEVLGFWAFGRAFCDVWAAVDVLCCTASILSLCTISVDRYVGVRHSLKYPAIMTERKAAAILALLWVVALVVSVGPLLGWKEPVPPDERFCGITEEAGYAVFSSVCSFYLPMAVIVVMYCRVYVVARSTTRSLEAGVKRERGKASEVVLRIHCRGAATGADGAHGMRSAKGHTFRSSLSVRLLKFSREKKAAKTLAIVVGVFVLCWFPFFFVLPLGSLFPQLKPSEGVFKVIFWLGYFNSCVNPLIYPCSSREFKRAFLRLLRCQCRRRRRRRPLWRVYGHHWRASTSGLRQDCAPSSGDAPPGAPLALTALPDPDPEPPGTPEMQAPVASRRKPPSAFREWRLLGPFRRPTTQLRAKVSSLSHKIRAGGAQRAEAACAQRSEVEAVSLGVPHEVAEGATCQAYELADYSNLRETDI
The assay is described as follows: Binding affinity to human alpha1D adrenergic receptor transfected in COS1 cells assessed as compound required to occupy 50% of receptor. Type of assay: cell-based, COS-1.

The target of assay [8] is T4, Alpha-1D adrenergic receptor. The assay is described as follows: Displacement of [3H]-prazosin from human alpha1D adrenergic receptor transfected in COS1 cells. Type of assay: cell-based, COS-1.
For assay [9], the species on record is Homo sapiens. In words: Selectivity ratio of Ki for human alpha1B adrenergic receptor to Ki for human alpha1A adrenergic receptor.
For assay [10], the species on record is Homo sapiens. The assay is described as follows: Selectivity ratio of Ki for human 5HT1A receptor to Ki for human alpha1A adrenergic receptor.
For assay [11], the species on record is Homo sapiens. In words: Selectivity ratio of Ki for human alpha1D adrenergic receptor to Ki for human alpha1A adrenergic receptor.

Structures are written as SMILES.

In the case of `Cc1ccc2nccc(NCCCCCCCNc3ccnc4ccc(C)cc34)c2c1`, the Ki – broadly, a dissociation constant, usually derived from enzyme kinetics or from competition with a known ligand – is 1.1 µM in [1]; 1.1 µM in assay [2]; 0.151 µM in assay [3]; 0.617 µM in assay [4]; 0.151 µM in assay [5]; 0.617 µM in assay [6]. For the same compound, the Ki in assay [7] and in assay [8] was 0.479 µM each time.

As to `c1ccc2c(NCCNc3ccnc4ccccc34)ccnc2c1`, the Ki in [1] is 2.29 µM; in assay [2] it was 2.29 µM; in assay [3], 0.028 µM; in [4], 0.026 µM; in assay [5], 0.0282 µM; in assay [6] it was 0.0263 µM. For the same compound, the Ki in assay [7] and in assay [8] was 0.331 µM each time.

In the case of `c1ccc2c(NCCCCCCCNc3ccnc4ccccc34)ccnc2c1`, the Ki in [1] is 0.832 µM; in assay [2], 0.832 µM; in [3] it was 0.148 µM; in assay [4], 0.126 µM; in assay [5], 0.148 µM; in [6], 0.126 µM. In addition, the Ki in assay [7] and in assay [8] was 0.309 µM throughout.

Take `COc1cccc2c(NCCCCCCCNc3ccnc4c(OC)cccc34)ccnc12`: the Ki was 0.603 µM in assay [1]; 0.603 µM in [2]; 0.155 µM in assay [3]; 0.074 µM in [4]; 0.155 µM in [5]; 0.0741 µM in assay [6]. The Ki in [7] and in [8] was 0.759 µM in each case.

Take `Cc1ccc2c(NCCNc3ccnc4cc(C)ccc34)ccnc2c1`: the Ki was 3.47 µM in assay [1]; 3.47 µM in [2]; 0.048 µM in assay [3]; 0.12 µM in [4]; 0.0479 µM in assay [5]; 0.12 µM in assay [6]. Moreover, the Ki in [7] and in assay [8] was 0.204 µM throughout.

For the compound `Cc1ccc2c(NCCCCCCCNc3ccnc4cc(C)ccc34)ccnc2c1`, the inhibition constant Ki in assay [1] is 1.26 µM; in assay [2], 1.26 µM; in assay [3], 0.051 µM; in [4], 0.112 µM; in [5], 0.0513 µM; in [6], 0.112 µM. Moreover, the Ki in assay [7] and in assay [8] was 0.49 µM in each case.

As for `COc1cccc2c(NCCNc3ccnc4c(OC)cccc34)ccnc12`, the Ki is 3.09 µM in assay [1]; 3.09 µM in assay [2]; 0.324 µM in [3]; 0.195 µM in assay [4]; 0.324 µM in [5]; 0.195 µM in assay [6]. The Ki in assay [7] and in assay [8] was 2 µM each time.

Regarding `Cc1cccc2c(NCCNc3ccnc4c(C)cccc34)ccnc12`, the Ki in [1] was 1.17 µM; in [2], 1.17 µM; in assay [3], 0.04 µM; in assay [4], 0.007 µM; in [5], 0.0398 µM; in assay [6] it was 0.00741 µM. Moreover, the Ki in assay [7] and in assay [8] was 0.479 µM throughout. Further, the Ratio Ki in the assay listed under Homo sapiens [9] was 6; in the assay listed under Homo sapiens [10], 168; in the assay filed under Homo sapiens [11], 68.

On to `COc1ccc2nccc(NCCCCCCCNc3ccnc4ccc(OC)cc34)c2c1`, for which the Ki in assay [1] was 1.38 µM; in assay [2], 1.38 µM; in assay [3] it was 0.148 µM; in assay [4], 0.316 µM; in assay [5], 0.148 µM; in assay [6] it was 0.316 µM. Moreover, the Ki in assay [7] and in assay [8] was 0.372 µM throughout.

As to `COc1ccc2c(NCCNc3ccnc4cc(OC)ccc34)ccnc2c1`, the Ki in [1] is 0.891 µM; in assay [2] it was 0.891 µM; in assay [3], 0.05 µM; in [4], 0.069 µM; in assay [5], 0.0501 µM; in [6], 0.0692 µM. Further, the Ki in assay [7] and in [8] was 0.214 µM in each case.

For the compound `COc1ccc2c(NCCCCCCCNc3ccnc4cc(OC)ccc34)ccnc2c1`, the Ki in assay [1] was 2.82 µM; in assay [2], 2.82 µM; in [3], 0.035 µM; in assay [4], 0.257 µM; in [5], 0.0347 µM; in assay [6], 0.257 µM. In addition, the Ki in assay [7] and in assay [8] was 0.229 µM in each case.

As to `Cc1ccc2nccc(NCCNc3ccnc4ccc(C)cc34)c2c1`, the Ki in assay [1] is 0.617 µM; in assay [2] it was 0.617 µM; in assay [3] it was 0.019 µM; in assay [4], 0.135 µM; in assay [5], 0.0191 µM; in [6], 0.135 µM. For the same compound, the Ki in assay [7] and in [8] was 0.49 µM throughout.
